Experimental findings from patent publication US20080058293A1, “Quinoline Derivates and Their Use in Therapy” (priority 2003, published 2008) are described below.

Structures are written as SMILES. pIC50: −log10 of the molar value. Structures can show the parent of a compound that is named as a salt.

In this test the target is T1, P2X7 receptor (Homo sapiens, UniProt Q99572).
T1 construct: 200 μl of a suspension of THP-1 cells; endogenous in cells; host or cells: THP-1 cells
T1 sequence (Q99572 1-595): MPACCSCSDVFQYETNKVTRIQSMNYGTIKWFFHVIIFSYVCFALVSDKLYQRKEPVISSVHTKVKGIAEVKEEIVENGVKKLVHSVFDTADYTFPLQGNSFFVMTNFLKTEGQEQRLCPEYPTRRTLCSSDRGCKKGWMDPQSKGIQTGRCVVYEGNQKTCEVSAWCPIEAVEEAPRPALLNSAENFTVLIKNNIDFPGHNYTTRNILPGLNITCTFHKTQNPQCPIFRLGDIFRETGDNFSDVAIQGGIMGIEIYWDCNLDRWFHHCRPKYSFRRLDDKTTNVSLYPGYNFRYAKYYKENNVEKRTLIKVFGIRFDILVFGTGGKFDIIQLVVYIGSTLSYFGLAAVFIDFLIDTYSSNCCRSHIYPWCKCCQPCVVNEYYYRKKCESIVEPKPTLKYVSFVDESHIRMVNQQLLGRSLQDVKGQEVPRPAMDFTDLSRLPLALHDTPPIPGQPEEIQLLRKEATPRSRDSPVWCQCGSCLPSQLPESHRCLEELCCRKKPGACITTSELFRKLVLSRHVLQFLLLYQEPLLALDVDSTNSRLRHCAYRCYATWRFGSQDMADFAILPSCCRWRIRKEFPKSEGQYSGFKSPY
The test can be described thus: bbATP-induced ethidium bromide fluorescence in THP-1 cells, P2X7 receptor antagonist activity. To be noted: negative logarithm of concentration reducing bbATP agonist activity by 50%, 10^-5M bbATP, 37° C. one hour. Format: cell-based. The source says: Certain compounds such as benzoylbenzoyl adenosine triphosphate (bbATP) are known to be agonists of the P2X7 receptor, effecting the formation of pores in the plasma membrane (Drug Development Research (1996), 37(3), p. 126). Consequently, when the receptor is activated using bbATP in the presence of ethidium bromide (a fluorescent DNA probe), an increase in the fluorescence of intracellular DNA-bound ethidium bromide is observed. The increase in fluorescence can be used as a measure of P2X7 receptor activation and therefore to quantify the effect of a compound on the P2X7 receptor.
In this manner, each of the title compounds of the Examples was tested for antagonist activity at the P2X7 receptor. Thus, the test was performed in 96-well flat bottomed microtitre plates, the wells being filled with 250 μl of test solution comprising 200 μl of a suspension of THP-1 cells (2.5×10^6 cells/ml) containing 10^−4M ethidium bromide, 25 μl of a high potassium buffer solution containing 10^−5M bbATP, and 25 μl of the high potassium buffer solution containing 3×10^−5M test compound. The plate was covered with a plastics sheet and incubated at 37° C. for one hour. The plate was then read in a Perkin-Elmer fluorescent plate reader, excitation 520 nm, emission 595 nm, slit widths: Ex 15 nm, Em 20 nm. For the purposes of comparison, bbATP (a P2X7 receptor agonist) and pyridoxal 5-phosphate (a P2X7 receptor antagonist) were used separately in the test as controls.
As usually defined, the pIC50 is the negative decadic logarithm of the IC50, by convention in mol/L. The molecule `Cc1ccc2c(C(=O)NC[C@H](C)c3ccccc3)c(Cl)ccc2n1` [Example 1, 6-Chloro-2-methyl-N-[(2R)-2-phenylpropyl]-5-quinolinecarboxamide, hydrochloride] had a negative-log IC50 (pIC50) of 6.50.
The value for `CNCCCN(C)c1ccc2c(NC(=O)C[C@@H](C)c3ccccc3)c(Cl)ccc2n1` [Example 3, (βR)-N-[6-Chloro-2-[methyl[3-(methylamino)propyl]amino]-5-quinolinyl]-β-methyl-benzenepropanamide, ditrifluoroacetate] was 7.50.
To `O=C(CCc1ccccc1Cl)Nc1c(Cl)ccc2nc(N3CCC(C(=O)O)CC3)ccc12` [Example 20, 1-[6-Chloro-5-[[3-(2-chlorophenyl)-1-oxopropyl]amino]-2-quinolinyl]-4-piperidinecarboxylic acid, potassium salt] belongs 6.10.
